For one data set, the system named is T cells / MDSCs. In words: Promotion of T cell proliferation in a co-culture model of MDSCs and T cells. Particulars: 1 μM, MDSCs treated 12 hours, co-culture of MDSCs and T cells, compared to the control group. In kind it is cell-based, mouse. An outline of the steps: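 Bone-marrow MDSCs, after compound treatment, were co-cultured 48 h at 1:1 with CFDA-SE-labelled (10 μM solution), activated splenic T cells. Proliferation of CD3+ T cells was read by flow cytometry.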

A further data set deals with MDSCs. In words: Proportion of MDSCs in tumor and spleen of H22 xenograft mice (flow cytometry). The format is in vivo, BALB/c mice. On the procedure:
Once all tumors were dissected, nail-sized tumor pieces were transferred to 1.5 mL Eppendorf tubes and minced with scissors. Transfer the minced tumor tissue suspension to a 15 mL centrifuge tube containing 3-5 mL of digestive enzymes (Collagenase IV 1 mg/mL, Hyaluronidase 1 mg/mL, DNase 120 U/mL). Incubate at 200 rpm and 37° C. for 1 hour. After digestion, pass the mixture through a 200-mesh sieve to obtain the tumor cell suspension. Centrifuge the resulting tumor suspension at 1600 rpm for 5 min, aspirate the supernatant, resuspend cells in 1 mL of 1×PBS per tube. Transfer the cell suspension to a 1.5 mL Eppendorf tube, centrifuge at 1600 rpm for 5 min, remove the supernatant, resuspend cells in 100 μL of 1×PBS per tube, add 1 μL of dead/live dye to each tube, mix thoroughly, and incubate at room temperature in the dark for 15 min. […] Position the spleen on a 200-mesh cell strainer. Gently press the spleen using a 10 mL syringe needle. […] Transfer the washed splenocyte suspension into a 15 mL centrifuge tube. Centrifuge at 1600 rpm for 5 min to collect cells. Wash once with 1×PBS. Add 3 mL red blood cell lysis buffer (diluted with ddH2O) to each tube and incubate for 5 min. After lysis, add 10 mL 1×PBS to each tube to terminate lysis. Centrifuge at 1600 rpm for 5 min. Add 1 mL 1×PBS to each 15 mL centrifuge tube, transfer to 1.5 mL EP tubes, and centrifuge at 1600 rpm for 5 min. Add 1 mL 1×PBS to each tube containing stained tumor cells and lysed spleen cells for one wash, centrifuge at 1600 rpm for 5 min, and remove the supernatant. Resuspend tumor cells and spleen cells separately in 100 μL 1×PBS. Add 1 μL FcX™ antibody to each tube and incubate at room temperature in the dark for 10 min. After incubation, sequentially add 1 μL each of CD45, CD11b, Gr1 antibodies. Incubate at 4° C. in the dark for 30 min. After incubation, wash once with 1×PBS, discard the supernatant, resuspend cells in 300 μL 1×PBS, filter the membrane into a flow cytometry tube, and proceed to instrument analysis.
On the technique in general: A flow cytometer gives signals particle by particle.

A further data set has as its system H22 cells. Description: Antitumor effect in H22 mouse hepatocellular carcinoma subcutaneous xenograft model. The format is in vivo, BALB/c mice. The settings on record: oral, 2 weeks.
In the next data set the test system is T cells. Description: Proportion of T cells in tumor and spleen of H22 xenograft mice (flow cytometry). In kind it is in vivo, BALB/c mice. On the procedure:
Once all tumors were dissected, nail-sized tumor pieces were transferred to 1.5 mL Eppendorf tubes and minced with scissors. Transfer the minced tumor tissue suspension to a 15 mL centrifuge tube containing 3-5 mL of digestive enzymes (Collagenase IV 1 mg/mL, Hyaluronidase 1 mg/mL, DNase 120 U/mL). Incubate at 37° C. on a shaking incubator at 200 rpm for 1 hour. After digestion, pass the mixture through a 200-mesh sieve to obtain the tumor cell suspension. Centrifuge the resulting tumor suspension at 1600 rpm for 5 min, aspirate the supernatant, resuspend cells in 1 mL of 1×PBS per tube. Transfer the cell suspension to a 1.5 mL Eppendorf tube, centrifuge at 1600 rpm for 5 min, remove the supernatant, resuspend cells in 100 μL of 1×PBS per tube, add 1 μL of dead/live dye to each tube, mix thoroughly, and incubate at room temperature in the dark for 15 min. […] Position the spleen on a 200-mesh cell strainer. Gently press the spleen using a 10 mL syringe needle. […] Transfer the splenocyte suspension into a 15 mL centrifuge tube. Centrifuge at 1600 rpm for 5 min to collect cells. Wash once with 1×PBS. Add 3 mL red blood cell lysis buffer (diluted with ddH2O) to each tube and incubate for 5 min. After lysis, add 10 mL 1×PBS to each tube to terminate lysis. Centrifuge at 1600 rpm for 5 min. Add 1 mL 1×PBS to each 15 mL centrifuge tube, transfer to 1.5 mL EP tubes, and centrifuge at 1600 rpm for 5 min. Add 1×PBS to each tube containing stained tumor cells and lysed spleen cells for one wash, centrifuge at 1600 rpm for 5 min, and remove the supernatant. Resuspend tumor cells and spleen cells separately in 100 μL 1×PBS. Add 1 μL FcX™ antibody to each tube and incubate at room temperature in the dark for 10 min. After incubation, sequentially add 1 μL each of CD45, CD3, and CD8 antibodies to each tube. Incubate at 4° C. in the dark for 30 min. After staining, wash once with 1 mL PBS. Centrifuge at 1600 rpm for 5 min. Discard the supernatant. Resuspend cells in 300 μL 1×PBS. Filter the cell suspension into a flow cytometry tube and proceed to instrument analysis.

The next data set deals with 4T1 cells. In words: Antitumor effect in 4T1 mouse mammary carcinoma xenograft model. In kind it is in vivo, BALB/c mice. Particulars: oral, 3 weeks. On the procedure: 4T1 cells were cultured and expanded in vitro. […] A 100 μL aliquot of this suspension was injected subcutaneously into the left forelimb axilla of female BALB/c mice. […] Daily oral administration was performed for 3 weeks. During the treatment period, mouse body weight and tumor diameter were measured daily. At the end of the experiment, mice were euthanized by cervical dislocation, and tumors were removed for weighing. Tumor volume (TV) was calculated using the formula: TV=½×a×b^2, where a represents the longest diameter of the tumor and b represents the shortest diameter.

The test system of another data set is Hepa1-6 cells. In words: Antitumor effect in Hepa1-6 mouse hepatocellular carcinoma subcutaneous xenograft model. In kind it is in vivo, C57BL/6 mice. Particulars: 40 μmol/kg/d oral, 2 weeks.
Data set [1] in a line: Water solubility testing of compounds (HPLC). The settings on record: deionized water, 37 °C.
Data set [2] deals with inflammatory factors (TNF, IL-6, IL-1) in renal tissue. In words: LPS-induced sepsis, renal inflammatory factor mRNA (Q-PCR). Particulars: 5 mg/kg.
Source text: (§3) They were acclimated for 7 days before experimentation.
(§4) The normal and model groups received equal volumes of solvent (0.5% CMC-Na) via oral gavage.
(§5) Specimen Collection: One hour after the final drug administration, mice were euthanized by cervical dislocation. The abdominal cavity was opened, and the lungs, liver, and kidneys were removed. These organs were rinsed twice with pre-chilled PBS. Tissue samples were excised from the mouse lungs, left hepatic lobe, and kidneys. […] Remaining tissues were stored at −70° C. for future use.
(§6) Accurately weigh 20 mg of kidney, lung, and liver tissue. Rinse with pre-chilled PBS solution, cut into small pieces using ophthalmic scissors, and place into a glass homogenizer. Add 1 mL of Trizol reagent and grind to prepare tissue homogenate. Transfer the homogenate to a RNAse-free 1.5 mL EP tube and lyse on ice for 10 min. Add 200 μL chloroform, vortex vigorously, and let stand on ice for 3-5 min. Centrifuge at 12,000 rpm and 4° C. for 15 min. Carefully transfer the supernatant to a new RNAse-free 1.5 mL EP tube. Add an equal volume of pre-chilled isopropanol, incubate on ice for 30 min, then centrifuge at 12,000 rpm and 4° C. for 10 min. Discard the supernatant. […] Subsequently, dissolve the pellet in 10 μL DEPC-treated water. Dilute 1 μL of the total RNA solution 100-fold and measure the OD values at 260 nm and 280 nm using a full-wavelength microplate reader.
(§7) Following the method described in the kit manual, subsequent experiments were conducted using a 20 μL reverse transcription reaction system:
(§8) Primers were designed based on the nucleotide sequence of the mouse in GenBank and synthesized.
(§9) Perform subsequent experiments using a 20 μL reaction system according to the kit instructions:
(§10) After adding the above reagents to micro reaction tubes, seal them with the cap and place them in the Q-PCR instrument. Set the parameters according to the following reaction conditions to perform the amplification experiment.
(§11) Record the threshold cycle (Ct) values for each group and perform calculation and analysis using the 2^−ΔΔCt method (setting the expression level of the reference gene Gapdh as 1 to correct the expression levels of the target genes).
(§12) Data Statistics: All data are presented as Means±S.E.M. Analysis of variance (ANOVA) was performed to assess the significance of differences. Groups showing significant differences in ANOVA were further compared using one-way ANOVA and Dunnett's test. A P-value <0.05 was considered statistically significant.
In data set [3] the test system is mouse ear atopic dermatitis. Description: MC903-induced atopic dermatitis of the ear, ointment: ear thickness, dermatitis score, lesions. The format is in vivo. The settings on record: 1% ointment, 7 days; max score 12. As to the method: (1) Preparation of Oil Phase: Weigh white petrolatum, light liquid paraffin, glyceryl monostearate, ethylparaben, and cetyl alcohol. Heat to 65° C. while stirring until dissolved. Slowly add the dissolved active pharmaceutical ingredient (API) while continuing to stir until uniformly mixed. Set aside.
(2) Aqueous Phase Preparation: Weigh purified water and Tween 80, heat to 70° C., stir to dissolve, and set aside;
(3) Emulsification: Slowly add the aqueous phase to the oil phase while maintaining 65° C., homogenize, and continue stirring for 30 min;
(4) Cooling: Stop heating, continue stirring, gradually reduce to room temperature, cool to form an ointment, and fill containers.
(§1) Dissolve these substances in a small amount of propylene glycol, then place the resulting solution into the aforementioned pre-cooled blank ointment base. Finally, add water to make the total mass up to 10 g, and grind the mixture thoroughly in a mortar.
(§2) Except for the Normal group, all other groups underwent AD modeling: 20 μL of MC903 solution (also known as calcipotriol, purchased from Shanghai Yuanye Biotechnology Co., Ltd., used for inducing atopic models) was applied to each mouse's ears once daily for 14 consecutive days to induce the atopic dermatitis model. […] Measure ear thickness changes every 2 days using an electronic caliper before modeling and after treatment initiation.
Skin Lesion Severity Score: Daily skin lesion severity was assessed in mice using the following criteria, primarily encompassing four symptoms: 1) erythema/hemorrhage; 2) dryness; 3) desquamation/erosion; 4) edema. Each symptom was scored from 0 to 3 based on lesion severity: no symptoms=0 points, mild=1 point, moderate=2 points, severe=3 points. […] Higher scores indicated more severe lesions, with a maximum score of 12. Statistical analysis was performed on the data.

The test system of data set [4] is inflammatory cytokines (IL-1β, IL-6) in lung tissue. Description: LPS-induced acute lung injury, inflammatory cytokines by ELISA. The format is in vivo, C57BL/6 mice. Particulars: 5 mg/kg; LPS 2411.32. As to the method: After a 7-day acclimatization period, mice were used for subsequent experiments.
The abdomen was opened, and the lungs were removed. They were rinsed twice with pre-chilled PBS. […] The remaining tissue was stored at −70° C. for future use.
Data Statistics: All data are expressed as means S.E.M. Statistical differences between groups were analyzed using one-way ANOVA and t-tests in SPSS software. P values less than 0.05 were considered statistically significant.
For orientation: An ELISA detects its analyte on a solid surface through an enzyme-linked reagent.

The subject of data set [5] is inflammatory factors (TNF, IL-6, IL-1) in liver tissue. Description: LPS-induced sepsis, hepatic inflammatory factor mRNA (Q-PCR). Particulars: 5 mg/kg.
Source text: as §3, §4, §5, §6, §7, §8, §9, §10, §11, §12
For data set [6], the system named is inflammatory markers in the ears of AD mice. In words: MC903-induced atopic dermatitis of the ear, ointment: mRNA of inflammatory markers. The format is in vivo, mouse. The settings on record: 1% ointment. As to the method: as §1, §2
Data set [7] has as its system inflammatory cytokines (TNF, IL-6, IL-1) in lung tissue. Description: LPS-induced sepsis, lung inflammatory factor mRNA (Q-PCR). The settings on record: 5 mg/kg.
Source text: as §3, §4, §5, §6, §7, §8, §9, §10, §11, §12
The subject of data set [8] is IgE and inflammatory markers of AD mice. Description: MC903-induced atopic dermatitis, oral administration: serum IgE and ear mRNA of inflammatory markers. Further details: scale not given here. The format is in vivo, mouse. Particulars: 5 mg/kg. On the procedure:
as §2

The subject of data set [9] is inflammatory factors (TNF, IL-6, IL-1) in renal tissue. Description: Lupus nephritis, renal inflammatory factor mRNA. The settings on record: 3 mg/kg, oral, 8 weeks. In kind it is in vivo, MRL/lpr mice. As to the method:
Experimental animals: MRI/MpJ and MRL/lpr mice, female, 10 weeks old, purchased from GemPharmatech LLC. Production license number: SCXK(Su)2023-0009. […] They were acclimated for 7 days before use in experiments.
Oral administration was performed continuously for 8 weeks.
Allow blood to stand at room temperature for 2 hours, then centrifuge at 3000 rpm for 20 minutes. Aspirate the serum, aliquot it, and store at −70° C. for future use. After blood collection, euthanize mice by cervical dislocation. Open the abdominal cavity, remove kidneys, and dissect out perirenal fat and capsules. […] Store remaining tissues at −70° C. for future use.

Setting [10] is: 40 μmol/kg/day, oral, 2 weeks, spleen, flow cytometry.
Setting [11] is: 40 μmol/kg/day, oral, 2 weeks, tumor, flow cytometry.
[12] abbreviates: compared with solvent control, result in words.

Regarding `C=C1C(=O)O[C@H]2[C@H]1CCC(C)=C1CC[C@@](C)(OC(=O)NCCN3CCOCC3)[C@@H]12` [Compound 99], in the data set with T cells / MDSCs, the “T-cell proliferation rate (%)” value is “+ (T-cell proliferation rate within the 0-20% range compared to the control group)”. The “Spleen MDSCs (%)” value in the data set with MDSCs (setting [10]) was determined as 30.90 ± 10.21 %. In the data set with MDSCs (setting [11]), the “Tumor-associated MDSCs (%)” value is listed as 34.85 ± 7.99 %. Also, the “proportion of MDSCs in tumor tissues and spleens” value in the data set with MDSCs (setting [12]) was “significantly reduced”. Further, in the data set with H22 cells (40 μmol/kg/day, H22 xenograft), the “Tumor Suppression Rate (%)” value worked out at 25.18% and the “Tumor weight” value stood at 6.40 ± 1.59 g. Further, the “tumor-inhibiting effect, H22” value in the data set with H22 cells (result in words) is listed as “tumor-inhibiting effects”. The “Spleen T cells (%)” value in the data set with T cells (setting [10]) is recorded as 31.71 ± 2.95 %. Besides, the “Tumor T cells (%)” value in the data set with T cells (setting [11]) was 22.81 ± 5.33 %. For the same molecule, the “proportion of T cells in tumor tissues and spleens” value with T cells (setting [12]) is “significantly increased”. In the data set with 4T1 cells (40 μmol/kg/day, 4T1), the “Tumor inhibition rate (%)” value was 20.94% and the “Tumor weight” value worked out at 1.43 ± 0.19 g. Further, the “antitumor effect, 4T1” value in the data set with 4T1 cells (result in words) was “no significant antitumor effects”. In addition, the “Tumor Inhibition Rate” value in the data set with Hepa1-6 cells is recorded as 80.05%. For the same molecule, the “Tumor weight” value in the data set on Hepa1-6 cells (solvent 0.92 ± 1.41) amounted to 0.18 ± 0.40 g. The molecule also gave a Water-solubility in data set [1] of 220.8 mg/mL.
With `C[C@@H]1C[C@H]2[C@@H]3CCC4=CC(=O)C=C[C@]4(C)[C@@]3(F)[C@@H](O)C[C@]2(C)[C@@]1(O)C(=O)CO` [Dex, Dexamethasone, reference compound], in data set [2] (LPS 7.99), the “Il1 mRNA expression, kidney” value amounted to 6.05 ± 1.03. The “Il6 mRNA expression, kidney” value in data set [2] (LPS 8.80) is on record as 5.76 ± 0.72. Moreover, the “Dermatitis Score, ear” value in data set [3] is 3.50 ± 0.22. The molecule further gave an IL-1β in [4] of 1873.00 ± 86.52 pg/mL. For the same molecule, the “Il6 mRNA expression, liver” value in data set [5] (LPS 11.34) is on record as 4.27 ± 1.33. Also, the “Il1 mRNA expression, liver” value in [5] (LPS 11.52) is 7.54 ± 0.70. In addition, in [6], the “I14 mRNA expression, ear” value is 1.35 ± 0.30; the “I113 mRNA expression, ear” value is listed as 1.91 ± 0.39; the “I131 mRNA expression, ear” value was 1.86 ± 0.44; the “Il1 mRNA expression, ear” value came out at 12.69 ± 4.22. Also, the “TSLP mRNA expression, ear” value in data set [6] came to 1.30 ± 0.17. In data set [7] (LPS 19.01), the “Il1 mRNA expression, lung” value came out at 7.20 ± 0.36. Besides, in [7] (LPS 20.34), the “Il6 mRNA expression, lung” value came to 9.88 ± 0.80. Moreover, in data set [8], the “I14 mRNA expression, ear” value stood at 2.59 ± 0.38; the “I113 mRNA expression, ear” value worked out at 1.89 ± 0.20; the “I131 mRNA expression, ear” value was 2.06 ± 0.20. In addition, in [9], the “Il1 mRNA expression, kidney” value is recorded as 3.47 ± 0.35; the “Il6 mRNA expression, kidney” value was 1.12 ± 0.24; the “Tnf mRNA expression, kidney” value is reported as 1.94 ± 0.30.

The record behind these values is US20260315434A1, “USE OF GUAIACOL SESQUITERPENE LACTONE DERIVATIVES” (NANJING UNIVERSITY OF CHINESE MEDICINE, priority 2023, published 2026).
